This assay relates to CD8F1 mice, subcutaneous mammary adenocarcinoma, T/C%. The assay can be described thus: NCI In Vivo Anticancer Drug Screen. Data for tumor model Mammary Adenocarcinoma CD8F1 (subcutaneous) in CD8F1. As to conditions: higher = larger tumour. The gist of the method:
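Compound-treated versus vehicle-treated mice with transplantable tumors; survival or tumor size compared as T/C.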

Where [1] appears, read: endpoint: median tumor weight (est.), dose: 12.5 mg/kg/injection, schedule: Q07DX005 (ip), vehicle: Klucel (hydroxypropylcellulose) (HPC).
[2] abbreviates: endpoint: median tumor weight (est.), dose: 25.0 mg/kg/injection, schedule: Q07DX005 (ip), vehicle: Klucel (hydroxypropylcellulose) (HPC).
Setting [3] is: endpoint: median tumor weight (est.), dose: 100.0 mg/kg/injection, schedule: Q07DX005 (ip), vehicle: Klucel (hydroxypropylcellulose) (HPC).
The mark [4] stands for this setting: endpoint: median tumor weight (est.), dose: 25.0 mg/kg/injection, schedule: Q07DX005 (ip), vehicle: suspension in saline.
[5] abbreviates: endpoint: median tumor weight (est.), dose: 50.0 mg/kg/injection, schedule: Q07DX005 (ip), vehicle: suspension in saline.
The mark [6] stands for this setting: endpoint: median tumor weight (est.), dose: 100.0 mg/kg/injection, schedule: Q07DX005 (ip), vehicle: suspension in saline.
The mark [7] stands for this setting: endpoint: median tumor weight (est.), dose: 200.0 mg/kg/injection, schedule: Q07DX005 (ip), vehicle: suspension in saline.
Where [8] appears, read: endpoint: median tumor weight change, dose: 125.0 mg/kg/injection, schedule: Q01DX001 (ip), vehicle: saline with Tween-80.
Setting [9] is: endpoint: median tumor weight change, dose: 250.0 mg/kg/injection, schedule: Q01DX001 (ip), vehicle: saline with Tween-80.
Setting [10] is: endpoint: median tumor weight change, dose: 1000.0 mg/kg/injection, schedule: Q01DX001 (ip), vehicle: saline with Tween-80.
The mark [11] stands for this setting: endpoint: median tumor weight change, dose: 500.0 mg/kg/injection, schedule: Q01DX001 (ip), vehicle: Klucel (hydroxypropylcellulose) (HPC).
The mark [12] stands for this setting: endpoint: median tumor weight change, dose: 1000.0 mg/kg/injection, schedule: Q01DX001 (ip), vehicle: Klucel (hydroxypropylcellulose) (HPC).

The structures appear in SMILES notation. Values joined by “and” are separate entries in the source; they are usually repeats but may differ in a detail not shown here. Equal entries are not always repeated. Records with an inconclusive call do not appear.

On to `COc1cc([C@@H]2c3cc4c(cc3[C@@H](OC3OC5CO[C@@H](c6cccs6)OC5C(O)C3O)[C@H]3COC(=O)[C@H]23)OCO4)cc(OC)c1O` (stereo partly drawn), for which the T/C was 90 % of control and 103 % of control (endpoint: median tumor weight (est.), dose: 2.0 mg/kg/injection, schedule: Q07DX005 (ip), vehicle: suspension in saline); 23 % of control (endpoint: median tumor weight (est.), dose: 4.0 mg/kg/injection, schedule: Q07DX005 (ip), vehicle: saline); 87 % of control and 100 % of control (endpoint: median tumor weight (est.), dose: 4.0 mg/kg/injection, schedule: Q07DX005 (ip), vehicle: suspension in saline); 81 % of control and 92 % of control (endpoint: median tumor weight (est.), dose: 8.0 mg/kg/injection, schedule: Q07DX005 (ip), vehicle: suspension in saline); 47 % of control (endpoint: median tumor weight (est.), dose: 16.0 mg/kg/injection, schedule: Q07DX005 (ip), vehicle: saline); 25 % of control (endpoint: median tumor weight (est.), dose: 32.0 mg/kg/injection, schedule: Q07DX005 (ip), vehicle: saline). Besides, the T/C is, setting by setting: (endpoint: median tumor weight (est.), dose: 32.0 mg/kg/injection, schedule: Q07DX005 (ip), vehicle: suspension in saline) 51 % of control and 57 % of control; (endpoint: median tumor weight change, dose: 20.0 mg/kg/injection, schedule: Q01DX001 (ip), vehicle: suspension in saline) 96 % of control; (endpoint: median tumor weight change, dose: 40.0 mg/kg/injection, schedule: Q01DX001 (ip), vehicle: suspension in saline) 74 % of control; (endpoint: median tumor weight change, dose: 80.0 mg/kg/injection, schedule: Q01DX001 (ip), vehicle: suspension in saline) 91 % of control; (endpoint: median tumor weight change, dose: 160.0 mg/kg/injection, schedule: Q01DX001 (ip), vehicle: suspension in saline) 117 % of control; (endpoint: median tumor weight change, dose: 320.0 mg/kg/injection, schedule: Q01DX001 (ip), vehicle: suspension in saline) 80 % of control.
Turning to `NC(N)=NOCC[C@@H](N)C(=O)O`, the T/C is 83 % of control (endpoint: median tumor weight change, dose: 250.0 mg/kg/injection, schedule: Q01DX001 (ip), vehicle: saline); 72 % of control (endpoint: median tumor weight change, dose: 500.0 mg/kg/injection, schedule: Q01DX001 (ip), vehicle: saline); 75 % of control (endpoint: median tumor weight change, dose: 1000.0 mg/kg/injection, schedule: Q01DX001 (ip), vehicle: saline).
Regarding `CCc1ncnc2cc(OCC3CO3)c(OC)cc12` (stereo not drawn), the T/C reads like this: (endpoint: median tumor weight change, dose: 25.0 mg/kg/injection, schedule: Q01DX001 (ip), vehicle: suspension in saline) 118 % of control; (endpoint: median tumor weight change, dose: 50.0 mg/kg/injection, schedule: Q01DX001 (ip), vehicle: suspension in saline) 110 % of control; (endpoint: median tumor weight change, dose: 100.0 mg/kg/injection, schedule: Q01DX001 (ip), vehicle: suspension in saline) 35 % of control; (endpoint: median tumor weight change, dose: 400.0 mg/kg/injection, schedule: Q01DX001 (ip), vehicle: suspension in saline) 93 % of control.
Turning to `O=C(O)CC(=O)O.[NH-]C1CCCCC1[NH-].[Pt+2]` (stereo not drawn), the T/C was 14 % of control (endpoint: median tumor weight (est.), dose: 20.0 mg/kg/injection, schedule: Q07DX005 (ip), vehicle: dextrose); 38 % of control (endpoint: median tumor weight (est.), dose: 40.0 mg/kg/injection, schedule: Q07DX005 (ip), vehicle: dextrose); 67 % of control (endpoint: median tumor weight (est.), dose: 80.0 mg/kg/injection, schedule: Q07DX005 (ip), vehicle: dextrose).
For `CS(=O)(=O)OCCN(CCOS(C)(=O)=O)c1ccc(C=Nc2ccc(-c3csc(COc4ccccc4)n3)cc2)cc1`, the T/C is 88 % of control (endpoint: median tumor weight (est.), dose: 6.25 mg/kg/injection, schedule: Q07DX005 (ip), vehicle: Klucel (hydroxypropylcellulose) (HPC)); 97 % of control and 103 % of control under setting [1]; 75 % of control and 79 % of control under setting [2]; 83 % of control (endpoint: median tumor weight (est.), dose: 50.0 mg/kg/injection, schedule: Q07DX005 (ip), vehicle: Klucel (hydroxypropylcellulose) (HPC)); 27 % of control and 44 % of control under setting [3].
Regarding `Nc1ccn([C@@H](C=O)O[C@@H](C=O)CO)c(=O)n1`, the T/C by setting is: under setting [4], 122 % of control; under setting [5], 188 % of control; under setting [6], 151 % of control; under setting [7], 105 % of control.
For the molecule `COc1cc(C2c3cc4c(cc3C(O)C(CO)C2CO)OCO4)cc(OC)c1OC` (stereo not drawn), the T/C was 85 % of control under setting [8]; 102 % of control under setting [9]; 77 % of control (endpoint: median tumor weight change, dose: 500.0 mg/kg/injection, schedule: Q01DX001 (ip), vehicle: saline with Tween-80); 95 % of control under setting [10]; 50 % of control (endpoint: median tumor weight change, dose: 2000.0 mg/kg/injection, schedule: Q01DX001 (ip), vehicle: saline with Tween-80).
On to `O=C1N(CC2CO2)CCN1CC1CO1` (stereo not drawn), for which the T/C (endpoint: median tumor weight change, dose: 125.0 mg/kg/injection, schedule: Q01DX001 (ip), vehicle: suspension in saline) is 30 % of control.
Consider `CC(C)(C)C1CCCCC1`, for which the T/C is, setting by setting: under setting [1], 85 % of control; under setting [2], 69 % of control; under setting [3], 94 % of control; (endpoint: median tumor weight (est.), dose: 200.0 mg/kg/injection, schedule: Q07DX005 (ip), vehicle: Klucel (hydroxypropylcellulose) (HPC)) 73 % of control; (endpoint: median tumor weight (est.), dose: 400.0 mg/kg/injection, schedule: Q07DX005 (ip), vehicle: Klucel (hydroxypropylcellulose) (HPC)) 69 % of control.
Consider `C[C@H](N)C(=O)N[C@@H]1[C@H]2C(=C(O)C[C@@H](O)[C@@H]2O)C(=O)O[C@]1(C)C(Cl)Cl`, for which the T/C was 101 % of control (endpoint: median tumor weight change, dose: 1.87 mg/kg/injection, schedule: Q01DX001 (ip), vehicle: Klucel (hydroxypropylcellulose) (HPC)) and 101 % of control (endpoint: median tumor weight change, dose: 3.75 mg/kg/injection, schedule: Q01DX001 (ip), vehicle: Klucel (hydroxypropylcellulose) (HPC)).
As for `NC1=NCN(C2OC(CO)C(O)C2O)C(=O)N1` (stereo not drawn), the T/C (endpoint: median tumor weight (est.), dose: 25.0 mg/kg/injection, schedule: Q07DX004 (ip), vehicle: saline) was 74 % of control; the T/C under setting [4] was 59 % of control; the T/C (endpoint: median tumor weight (est.), dose: 50.0 mg/kg/injection, schedule: Q07DX004 (ip), vehicle: saline) was 76 % of control; the T/C under setting [5] is 45 % of control; the T/C (endpoint: median tumor weight (est.), dose: 100.0 mg/kg/injection, schedule: Q07DX004 (ip), vehicle: saline) was 107 % of control; the T/C under setting [6] was 56 % of control. The T/C was 72 % of control (endpoint: median tumor weight (est.), dose: 200.0 mg/kg/injection, schedule: Q07DX004 (ip), vehicle: saline); 61 % of control under setting [7]; 49 % of control (endpoint: median tumor weight (est.), dose: 400.0 mg/kg/injection, schedule: Q07DX004 (ip), vehicle: saline); 34 % of control (endpoint: median tumor weight (est.), dose: 400.0 mg/kg/injection, schedule: Q07DX005 (ip), vehicle: suspension in saline); 35 % of control (endpoint: median tumor weight (est.), dose: 800.0 mg/kg/injection, schedule: Q07DX004 (ip), vehicle: saline); 13 % of control (endpoint: median tumor weight (est.), dose: 800.0 mg/kg/injection, schedule: Q07DX005 (ip), vehicle: suspension in saline).
For `O=C1CN(Cc2ccc3c(c2)OCO3)NO1`, the T/C runs as follows: (endpoint: median tumor weight change, dose: 62.5 mg/kg/injection, schedule: Q01DX001 (ip), vehicle: saline with Tween-80) 80 % of control and 84 % of control; under setting [8], 113 % of control and 115 % of control; under setting [9], 80 % of control and 83 % of control; under setting [10], 88 % of control.
On to `Cn1cc(C2NC(=O)c3ccccc3N2)c2ccccc21` (stereo not drawn), for which the T/C runs as follows: (endpoint: median tumor weight change, dose: 25.0 mg/kg/injection, schedule: Q01DX001 (ip), vehicle: Klucel (hydroxypropylcellulose) (HPC)) 85 % of control; (endpoint: median tumor weight change, dose: 50.0 mg/kg/injection, schedule: Q01DX001 (ip), vehicle: Klucel (hydroxypropylcellulose) (HPC)) 85 % of control; (endpoint: median tumor weight change, dose: 100.0 mg/kg/injection, schedule: Q01DX001 (ip), vehicle: Klucel (hydroxypropylcellulose) (HPC)) 91 % of control; (endpoint: median tumor weight change, dose: 200.0 mg/kg/injection, schedule: Q01DX001 (ip), vehicle: Klucel (hydroxypropylcellulose) (HPC)) 71 % of control; under setting [11], 68 % of control; under setting [12], 33 % of control.
Consider `O=Cc1ccc(C=O)c(Cl)c1`, for which the T/C reads like this: (endpoint: median tumor weight change, dose: 125.0 mg/kg/injection, schedule: Q01DX001 (ip), vehicle: Klucel (hydroxypropylcellulose) (HPC)) 104 % of control; (endpoint: median tumor weight change, dose: 250.0 mg/kg/injection, schedule: Q01DX001 (ip), vehicle: Klucel (hydroxypropylcellulose) (HPC)) 99 % of control; under setting [11], 79 % of control; under setting [12], 117 % of control; (endpoint: median tumor weight change, dose: 2000.0 mg/kg/injection, schedule: Q01DX001 (ip), vehicle: Klucel (hydroxypropylcellulose) (HPC)) 67 % of control.
On to `COC1=C(C)C(=O)C2=C(C1=O)C(CO)N1C(C#N)C3CC4C(C1C2N1CCOC41)N3C` (stereo not drawn), for which the T/C by setting is: (endpoint: median tumor weight change, dose: 0.62 mg/kg/injection, schedule: Q01DX001 (ip), vehicle: saline + alcohol) 120 % of control; (endpoint: median tumor weight change, dose: 1.25 mg/kg/injection, schedule: Q01DX001 (ip), vehicle: saline + alcohol) 98 % of control and 107 % of control and 116 % of control.
